Columns and labels:
[1] = Oxygen saturation (SpO2) in clinical trial subjects with low oxygen saturation, pre-dose vs 4 hrs after a single dose; assay type: in vivo, human
From the text: The present inventors have used data available for patients participating in clinical trials to determine whether LMT enhances oxygen saturation of blood. Data were available for 18 subjects with oxygen saturation <94% at baseline (lower limit of normal range is
These patients recorded a variety of respiratory or other conditions of various degrees of severity which it was suspected may have contributed to the detected hypoxemia, including sleep apnoea, insomnia (which may be indicative of Paroxysmal nocturnal dyspnea or paroxysmal nocturnal dyspnoea), asbestosis, oedema, asthma, bronchitis, allergies, angioedema, pneumonia, acute myocardial infarction/ hypertension, Coronary artery disease with angioplasty and stent insertion, transient ischaemic attacks (TIA), hypothyroidism, diabetes, syncope, tachycardia and sepsis. […]

metHb = metHb levels in clinical trial subjects receiving LMTM; assay type: in vivo, human
From the text: In order to understand this effect further the inventors investigated whether the low oxygen saturation in these patients is due to elevation in metHb levels. There was no difference in metHb levels at baseline between subjects with low SpO2 and those with SpO2 levels in the normal range.
Therefore, LMTM is able to act on haemoglobin over a range of doses in such a way as to enhance oxygen saturation in the blood by a novel mechanism unrelated to its known effects on metHb.

[2] = LMT at high concentrations, oral doses in the range 150-250 mg/day

| SMILES | oxygen saturation at 4 hours ([1]; single dose of LMT at 4 mg and ~100 mg (mean of 75, 100, 125 mg), 18 subjects with oxygen saturation <94% at baseline, pre-dose vs 4 hrs post-dose) | metHb levels (metHb; LMTM at higher doses / high dosages over a period of time, FIG. 3) | SpO2 levels [1, 2] | metHb levels (metHb; [2]) |
| --- | --- | --- | --- | --- |
| CN(C)c1ccc2c(c1)Sc1cc(N(C)C)ccc1N2 [LMTM, leuco-methylthioninium bis(hydromethanesulfonate)] | significantly increased | systematically increases |  |  |
| CN(C)c1ccc2c(c1)Sc1cc(N(C)C)ccc1N2 [LMT] |  |  | increase SpO2 levels | measurable increase |
